Patent publication US5478723A, “Method and apparatus for determining the role of cytochrome P450 and related enzymes in the metabolism of drugs and other chemicals” (priority 1993, dated 1995)
Entries after “also recorded” stand apart in the source; their conditions may differ.

Experiments:
CYP2CMp = details: in vivo; cited from earlier work
CYP1A2 enzyme = details: known; cited from earlier work
CYP2A6 enzyme = details: cited from earlier work
cytochrome P450 = details: in vivo; cited from earlier work
labor at term [1] = assay: Clinical trials of sparteine for inducing labor at term; type: in vivo, human; details: of all Caucasians; expected from CYP2D6 deficiency
Description: The drug was not recommended for clinical use because these side effects were unpredictable and occurred at doses of […], which were well tolerated by other patients.

labor at term [2] = details: cited from earlier work
CYP2D6 enzyme = details: background or known; cited from earlier work
[3] = administered with ketoconazole or erythromycin; cited from earlier work
CYP3A enzymes = details: cited from earlier work
CYP2D6 = details: cited from earlier work
liver = details: in vivo; cited from earlier work

For `CCC1(c2ccccc2)NC(=O)N(C)C1=O` (stereo not drawn) [Mephenytoin], the “enzyme which metabolizes the drug” value (CYP2CMp) is listed as “metabolized by CYP2CMp”.

For `Cn1c(=O)c2c(ncn2C)n(C)c1=O` [caffeine], the “enzyme which metabolizes the drug” value (CYP1A2 enzyme) is given as “metabolized by the CYP1A2 enzyme”.

For `O=c1ccc2ccccc2o1` [coumarin], the “enzyme which metabolizes the drug” value (CYP2A6 enzyme) is listed as “metabolized by the CYP2A6 enzyme”.

In the case of `CCC1(c2ccccc2)C(=O)NC(=O)NC1=O` [phenobarbital], the “effect on cytochrome P450 activity” value (cytochrome P450) is listed as “increase cytochrome P450 activity” and the “effect on metabolism of contraceptive steroids” value (cytochrome P450) is listed as “increased rate of metabolism of contraceptive steroids”.

In the case of `C1CCN2C[C@@H]3C[C@@H](CN4CCCC[C@@H]34)[C@H]2C1` [sparteine], the expected poor metabolizers (labor at term [1]) is listed as 5-10%, the “potency for inducing labor at term” value (labor at term [2]; clinical trials, United States, late 1950's) is listed as “as potent as oxytocin” and the “patients with dramatically increased duration and intensity of action” value (labor at term [2]; of all patients tested) is listed as “about 7%”. The “patients with exaggerated response” value (labor at term [2]; patients administered during clinical trials) was 7% and the “side effects (exaggerated response)” value (labor at term [2]; some patients) was “prolonged uterine contraction and abnormally rapid labor; also recorded: caused death of the fetus”.

In the case of `COc1ccc2c(c1)[C@]13CCCC[C@@H]1[C@H](C2)N(C)CC3` (stereo in doubt) [dextromethorphan], the “enzyme which metabolizes the drug” value (CYP2D6 enzyme) is given as “metabolized by the CYP2D6 enzyme”.

In the case of `CC(C)(C)c1ccc(C(O)CCCN2CCC(C(O)(c3ccccc3)c3ccccc3)CC2)cc1` (stereo not drawn) [terfenadine], the cardiac adverse reaction [3] is given as “Torsades de Points”.

For `CC(=O)N1CCN(c2ccc(OCC3COC(Cn4ccnc4)(c4ccc(Cl)cc4Cl)O3)cc2)CC1` (stereo not drawn) [ketoconazole], the “inhibition of CYP3A enzymes” value (CYP3A enzymes) is listed as “potent inhibitors of the CYP3A enzymes”.

In the case of `N=C(N)N1CCc2ccccc2C1` [debrisoquine], the “poor metabolizers among Caucasians” value (CYP2D6; Caucasians) is given as 5-10% and the “enzyme which metabolizes the drug” value (CYP2D6; in vivo) is given as “metabolized by CYP2D6”.

For `CO[C@H]1/C=C/O[C@@]2(C)Oc3c(C)c(O)c4c(O)c(c(/C=N/N5CCN(C)CC5)c(O)c4c3C2=O)NC(=O)/C(C)=C\C=C\[C@H](C)[C@H](O)[C@@H](C)[C@@H](O)[C@@H](C)[C@H](OC(C)=O)[C@@H]1C` [rifampin], the “effect on cytochrome P450 activity” value (cytochrome P450) is given as “increase cytochrome P450 activity” and the “effect on metabolism of contraceptive steroids” value (cytochrome P450) is given as “increased rate of metabolism of contraceptive steroids”.

In the case of `CN/C(=N/CCSCc1nc[nH]c1C)NC#N` [cimetidine], the “effect on cytochrome P450 activity” value (cytochrome P450) is given as “depresses P450 activity”.

In the case of `CC[C@@]1(c2ccccc2)NC(=O)N(C)C1=O` [S-mephenytoin], the “poor metabolizers among Caucasians” value (CYP2CMp) is listed as “less than 5%” and the “poor metabolizers among Japanese subjects” value (CYP2CMp) is listed as “about 20%”.

For `CC(=O)Nc1ccc(O)cc1` [acetaminophen], the “origin of liver toxicity” value (liver) is given as “due to a toxic metabolite that is generated by cytochrome P450”.
